The source of these data is US7998926B2, “Dimerized T-cell receptor fragment, its compositions and use” (The Arizona Boad of Regents on Behfl of the University of …, priority 2001, dated 2011).

A short description of experiment [1]: Immunomodulatory effects of homologs of the β3 peptide.
In a further experiment the test system is LP-BM5 retrovirus. The experiment can be described thus: Spleen weight in LP-BM5 retrovirus-infected mice. The settings on record: 200 μg peptide intraperitoneally two and six weeks after infection, relative to untreated infected animals. The experiment is classed as in vivo, C57BL/6 mice. The source says: FIG. 1. Spleen weight. The spleen weights were substantially (p<0.05) elevated in the infected mice relative to the uninfected animals. […] “a” indicates significant differences at p<0.05 compared with uninfected saline treatment.
(§1) Female C57BL/6 mice, four weeks old, were obtained from the Charles River Laboratories Inc. (Wilmington, Del.). Animals were cared for as required by the University of Arizona Committee on Animal Research. After two weeks housing in the Central Animal Facility, University of Arizona, they were randomly assigned to one of the following treatment groups: uninfected normal mice (four mice); LP-BM5-infected mice treated with saline (pyrogen free; six mice); LP-BM5-infected mice treated with 200 μg TCR Vβ3 monomer peptide (six mice); LP-BM5-infected mice treated with 200 μg TCR Vβ3 dimer peptide (six mice). […] Intraperitoneal administration of monomer and dimer peptides (dissolved in saline) was performed two and six weeks after LP-BM5 infection. Infection to of these mice with LP-BM5 retrovirus leads to the rapid induction of clinical symptoms with virtually no latent phase.

A further experiment concerns splenocyte T cells. Nature of the experiment: Con A-stimulated splenocyte proliferation (T cells) of LP-BM5-infected mice. Format: in vivo, C57BL/6 mice. The settings on record: 200 μg/mouse, vs infected saline group.
From the text: FIG. 2. Con A-stimulated splenocyte proliferation. […] “a” indicates significant differences at p<0.05 compared with uninfected saline treatment group. “b” indicates significant differences at p<0.05 compared with infected saline treatment group.
as §1

The next experiment relates to splenocyte B cells. The experiment can be described thus: LPS-stimulated splenocyte proliferation (B cells) of LP-BM5-infected mice. The experiment is classed as in vivo, C57BL/6 mice. The settings on record: 200 μg/mouse, vs infected saline group.
From the text: FIG. 3. LPS-stimulated splenocyte proliferation. […] “a” indicates significant differences at p<0.05 compared with uninfected saline treatment group. “b” indicates significant differences at […] compared with infected saline treatment group.
as §1

Another experiment relates to IL-2. Nature of the experiment: IL-2 production of splenocyte of LP-BM5-infected mice. The settings on record: 200 μg/mouse, vs infected saline group. Format: in vivo, C57BL/6 mice.
From the text: FIG. 4. IL-2 production of splenocyte. […] “a” indicates significant differences at p<0.05 compared with uninfected saline treatment group. “b” indicates significant differences at p<0.05 compared with infected saline treatment group.
as §1

For a further experiment, the system named is IFN-γ. The experiment can be described thus: IFN-γ production of splenocyte of LP-BM5-infected mice. The settings on record: 200 μg/mouse, vs infected saline group. The experiment is classed as in vivo, C57BL/6 mice.
From the text: FIG. 5. IFN-γ production of splenocyte. […] “a” indicates significant differences at P <0.05 compared with uninfected saline treatment group. “b” indicates significant differences at P<0.05 compared with infected saline treatment group.
as §1

For a further experiment, the system named is IL-6. The experiment can be described thus: Interleukin-6 production of splenocyte of LP-BM5-infected mice. The settings on record: 200 μg/mouse, mitogen-stimulated splenocytes, vs infected saline group. Format: in vivo, C57BL/6 mice.
From the text: FIG. 7. Interleukin-6 production of splenocyte. […] “a” indicates significant differences at p<0.05 compared with uninfected saline treatment group. “b” indicates significant differences at p<0.05 compared with infected saline treatment group.
as §1

A further experiment concerns aged mice. The settings on record: injection of peptide, not highly dimerised; cited from earlier work.
Another experiment relates to IL-4. Nature of the experiment: Interleukin-4 production of splenocyte of LP-BM5-infected mice. The experiment is classed as in vivo, C57BL/6 mice. The settings on record: 200 μg/mouse, mitogen-stimulated splenocytes, vs infected saline group.
From the text: FIG. 6. Interleukin-4 production of splenocyte. […] “a” indicates significant differences at P<0.05 compared with uninfected saline treatment group, “b” indicates significant differences at P<0.05 compared with infected saline treatment group.
as §1

Positions of bridges follow the written chain, without caps; N, C: chain ends. Chains are numbered I, II in the order given. No end group written: not given here.

Turning to “C S P K S G H D T V S W Y Q Q A (CSPKSGHDTVSWYQQA) [Pep Vβ5.2]”, the “Immunomodulatory effects compared with the β3 peptide” value in [1] is given as “Active”.

In the case of “CKPISGHNSLFWYRQT [TCR Vβ3 monomer, 16-mer TCR Vβ CDR1 peptide of T-cell receptor β chain clone YT35, monomer form, reference compound]”, the “Spleen weight (splenomegaly)” value with LP-BM5 retrovirus is reported as “significant reduction in spleen weight”. Besides, the “Con A-stimulated splenocyte proliferation (T-cell proliferation)” value in the experiment with splenocyte T cells is “significantly (p<0.05) prevented the suppression of T-cell proliferation”. In addition, the “LPS-stimulated splenocyte proliferation (B cell proliferation)” value with splenocyte B cells is given as “significantly (p<0.05) prevented the suppression of T-cell proliferation”. The “IL-2 production of splenocyte” value in the experiment on IL-2 is “significantly (p<0.05) normalized IL-2 production”. For the same substance, the “IFN-γ production of splenocyte” value in the experiment with IFN-γ is listed as “significantly (p<0.05) normalized IFN-γ production”. The “Interleukin-6 production of splenocyte” value in the experiment with IL-6 was “significantly (p<0.05) normalized IL-6”. Moreover, the Immunosenescence result with aged mice is “reduces immunosenescence in aged mice”.

Take “TCR Vβ3 dimer: homodimer of two SEQ ID NO:1 peptide monomers, formed through a disulphide bond at the N-terminal cysteine (chain 1 CKPISGHNSLFWYRQT; chain 2 CKPISGHNSLFWYRQT; disulfide I:1-II:1)”: the “Spleen weight (splenomegaly)” value is given as “significant reduction in spleen weight” in the experiment with LP-BM5 retrovirus and “at least as effective as the monomer” in the experiment on LP-BM5 retrovirus (listed as Vβ3 peptide dimers). Further, the “Con A-stimulated splenocyte proliferation (T-cell proliferation)” value in the experiment with splenocyte T cells is reported as “significantly (p<0.05) prevented the suppression of T-cell proliferation”; with splenocyte T cells (listed as Vβ3 peptide dimers) it was “at least as effective as the monomer”. In addition, the “LPS-stimulated splenocyte proliferation (B cell proliferation)” value in the experiment on splenocyte B cells is listed as “significantly (p<0.05) prevented the suppression of T-cell proliferation”; with splenocyte B cells (listed as Vβ3 peptide dimers), “at least as effective as the monomer”. For the same substance, the “IFN-γ production of splenocyte” value is recorded as “significantly (p<0.05) normalized IFN-γ production” with IFN-γ and “at least as effective as the monomer” in the experiment with IFN-γ (listed as Vβ3 peptide dimers). Further, the “Interleukin-4 production of splenocyte” value with IL-4 is on record as “significantly (p<0.05) normalized IL-4”; in the experiment with IL-4 (listed as Vβ3 peptide dimers), “at least as effective as the monomer”. The “Interleukin-6 production of splenocyte” value with IL-6 is recorded as “at least as effective as the monomer”.
